Experimental data taken from patent publication US8129396B2, “2-[1H-benzimidazol-2(3H)-ylidene]-2-(pyrimidin-2-yl)acetamides and 2-[benzothiazol-2(3H)-ylidene]-2-(pyrimidin-2-yl)acetamides as kinase inhibitors” (Telik, Inc., priority 2008, dated 2012).

Experiments:
[1] = biological target: T1, Aurora B kinase (Homo sapiens, UniProt Q96GD4); assay: Aurora B kinase assay (IMAP fluorescence polarization); assay type: biochemical; conditions: 10 μM ATP; rounded to 1 significant figure; read-out: Aur-B IC50
T1 construct: purchased BPS Bioscience
Excerpt: (§1) The cell lines HL60 (human promyelocytic leukemia) and HCT116 (human colon carcinoma) were obtained from the American Type Culture Collection, Manassas, Va., U.S.A., and HUVEC-2 (human umbilical vein endothelial cells) from BD Biosciences, Bedford, Mass., U.S.A. Aurora A kinase was obtained from Upstate Biotech, Billerica, Mass., U.S.A.; Aurora B kinase from BPS Bioscience, San Diego, Calif., U.S.A.; and VEGFR2 kinase from Cell Signaling Technology, Danvers, Mass., U.S.A. The IMAP FP Screening Express kit was obtained from Molecular Devices, Sunnyvale, Calif., U.S.A.; the CellTiter-Glo assay kit from Promega Corporation, Madison, Wis., U.S.A.; and the Cellular DNA Cytometric Analysis Reagent Kit and BrdU labeling and detection kit from Roche Diagnostics Corporation, Indianapolis, Ind., U.S.A. All products were used in accordance with manufacturer's directions. Kinase inhibition assays and the histone phosphorylation (p-H3) assay were conducted in duplicate, and the cytotoxicity and HUVEC proliferation assays were conducted in triplicate, in each case with solvent control.
(§2) The kinase reaction was initiated by adding 100 nM fluorescein labeled PKAtide and 10 μM adenosine triphosphate (ATP), and allowed to continue for 45 min at room temperature, after which it was stopped by adding binding reagent (1:400 dilution in binding buffer A). After 30 min of room temperature incubation with shaking, the fluorescence polarization was measured on a LJL plate reader. Aurora B kinase assay: performed as for the Aurora A kinase assay, but using Aurora B kinase instead of Aurora A kinase.

[2] = test system: HCT116 (human colon carcinoma) cells; assay: HCT116 cytotoxicity assay (CellTiter-Glo); assay type: cell-based; conditions: HCT-116, 72 h, cytotoxicity, three days culture, read-out: HCT116 IC50
Excerpt: as §1
Log-phase cells were trypsinized, collected by centrifugation, and resuspended in a small volume of fresh medium, and the density of viable cells was determined following Trypan Blue staining. Cells were diluted in fresh media (1×10^4 cells/mL for HL60 and 4×10^4 cells/mL for HCT116 cells), the test compounds (concentrations between 0.1 μM and 200 μM, dissolved in DMSO, 50 μL) added immediately after dilution to achieve a final DMSO concentration of 0.5%, then the suspensions added at 150 μL/well to 96-well plates, and incubated overnight to allow attachment in the case of adherent cells. The cells were cultured for three days (about three doubling times). The cells were then collected by centrifugation, and 100 μL of the culture supernatant was replaced by the CellTiter-Glo reagent. After incubation for 15 minutes at room temperature, the plate was read with a luminometer.

[3] = biological target: T2, VEGFR2 kinase (Homo sapiens, UniProt P35968); assay: VEGFR2 kinase assay; assay type: biochemical; conditions: 6 μM ATP, 1 mM MnCl2; rounded to 1 significant figure
T2 construct: purchased Cell Signaling Technology
Excerpt: as §1
This assay was performed as for the Aurora A kinase assay, using VEGFR2 kinase, CSKtide as the substrate with 6 μM ATP and 1 mM MnCl2, a kinase reaction time of 1 hr, and dilution of the binding reagent 1:1200 in binding buffer A/binding buffer B (1:1).

[4] = test system: p-H3 in HCT116 cells; assay: Histone phosphorylation (p-H3) assay; assay type: cell-based; conditions: Homo sapiens, HCT-116; HCT116 cells, 4 hr incubation; read-out: p-H3 IC50
Excerpt: as §1
Log phase HCT116 cells were seeded at 2.5×10^4 cells/well in a 96-well plate and allowed to attach overnight. The test compounds were diluted in DMSO (8 concentrations with serial 3-fold dilutions) and added to the cells (0.5% DMSO final concentration), and the cells incubated for 4 hr. The cells were then washed three times with cold phosphate-buffered saline (PBS), and lysis buffer was added. After 30 min shaking at 4° C. and centrifugation, the supernatants were transferred to a nitrocellulose membrane by a “dot-blot” apparatus. After washing the wells, the membrane was processed for Western blot. Detection of p-H3 and β-actin was performed on the same membrane with primary rabbit anti-p-H3 and mouse anti-β-actin antibodies followed by secondary goat anti-rabbit IRDye800 and goat anti-mouse AlexaFluor 680 antibodies. The membranes were scanned on an Odyssey scanner.

[5] = biological target: T3, Aurora A kinase (Homo sapiens, UniProt O14965); assay: Aurora A kinase assay (IMAP fluorescence polarization); assay type: biochemical; conditions: 10 μM ATP; rounded to 1 significant figure; read-out: Aur-A IC50
T3 construct: purchased Upstate Biotech
T3 sequence (O14965 1-403): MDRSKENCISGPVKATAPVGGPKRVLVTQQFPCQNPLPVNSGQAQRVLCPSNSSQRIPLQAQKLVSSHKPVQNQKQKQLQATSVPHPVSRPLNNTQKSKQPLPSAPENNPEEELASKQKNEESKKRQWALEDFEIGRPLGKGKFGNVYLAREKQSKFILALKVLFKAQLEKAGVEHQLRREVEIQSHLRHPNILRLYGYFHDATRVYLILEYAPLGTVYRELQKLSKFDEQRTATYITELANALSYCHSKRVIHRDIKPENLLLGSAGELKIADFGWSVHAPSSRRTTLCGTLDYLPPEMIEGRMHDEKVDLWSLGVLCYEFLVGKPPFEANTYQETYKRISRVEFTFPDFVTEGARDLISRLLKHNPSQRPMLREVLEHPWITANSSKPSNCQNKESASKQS
Excerpt: as §1
as §2, with “Aurora A kinase assay: the test compounds were diluted in dimethylsulfoxide (DMSO, eight concentrations with serial 3-fold dilutions) and incubated (final DMSO concentration 2.5%) with Aurora A kinase at room temperature for 5 min in kinase reaction buffer with 1 mM dithiothreitol (IMAP FP Screening Express). The” for “The”

[6] = test system: HUVEC-2 (human umbilical vein endothelial cells); assay: HUVEC VEGF-dependent proliferation assay (BrdU); assay type: cell-based; conditions: VEGF (25 ng/mL)-dependent proliferation, read-out: HUVEC IC50
Excerpt: as §1
HUVEC-2 cells were seeded at 10^4 cells/well in a 96-well plate coated with 0.1% gelatin in complete medium. […] The compounds were serially diluted in DMSO, and added to the cells at 0.5% DMSO final concentration. After 2 hr, VEGF (25 ng/mL) was added; and after a further day, 5-bromo-2-deoxyuridine (BrdU, 10 μM) was added to label proliferating cells, and the cells incubated for another day. The plates were then processed using the Roche BrdU labeling and detection kit, and the VEGF-dependent antiproliferative activity of the compounds determined.

T2 sequence (P35968 20-1356): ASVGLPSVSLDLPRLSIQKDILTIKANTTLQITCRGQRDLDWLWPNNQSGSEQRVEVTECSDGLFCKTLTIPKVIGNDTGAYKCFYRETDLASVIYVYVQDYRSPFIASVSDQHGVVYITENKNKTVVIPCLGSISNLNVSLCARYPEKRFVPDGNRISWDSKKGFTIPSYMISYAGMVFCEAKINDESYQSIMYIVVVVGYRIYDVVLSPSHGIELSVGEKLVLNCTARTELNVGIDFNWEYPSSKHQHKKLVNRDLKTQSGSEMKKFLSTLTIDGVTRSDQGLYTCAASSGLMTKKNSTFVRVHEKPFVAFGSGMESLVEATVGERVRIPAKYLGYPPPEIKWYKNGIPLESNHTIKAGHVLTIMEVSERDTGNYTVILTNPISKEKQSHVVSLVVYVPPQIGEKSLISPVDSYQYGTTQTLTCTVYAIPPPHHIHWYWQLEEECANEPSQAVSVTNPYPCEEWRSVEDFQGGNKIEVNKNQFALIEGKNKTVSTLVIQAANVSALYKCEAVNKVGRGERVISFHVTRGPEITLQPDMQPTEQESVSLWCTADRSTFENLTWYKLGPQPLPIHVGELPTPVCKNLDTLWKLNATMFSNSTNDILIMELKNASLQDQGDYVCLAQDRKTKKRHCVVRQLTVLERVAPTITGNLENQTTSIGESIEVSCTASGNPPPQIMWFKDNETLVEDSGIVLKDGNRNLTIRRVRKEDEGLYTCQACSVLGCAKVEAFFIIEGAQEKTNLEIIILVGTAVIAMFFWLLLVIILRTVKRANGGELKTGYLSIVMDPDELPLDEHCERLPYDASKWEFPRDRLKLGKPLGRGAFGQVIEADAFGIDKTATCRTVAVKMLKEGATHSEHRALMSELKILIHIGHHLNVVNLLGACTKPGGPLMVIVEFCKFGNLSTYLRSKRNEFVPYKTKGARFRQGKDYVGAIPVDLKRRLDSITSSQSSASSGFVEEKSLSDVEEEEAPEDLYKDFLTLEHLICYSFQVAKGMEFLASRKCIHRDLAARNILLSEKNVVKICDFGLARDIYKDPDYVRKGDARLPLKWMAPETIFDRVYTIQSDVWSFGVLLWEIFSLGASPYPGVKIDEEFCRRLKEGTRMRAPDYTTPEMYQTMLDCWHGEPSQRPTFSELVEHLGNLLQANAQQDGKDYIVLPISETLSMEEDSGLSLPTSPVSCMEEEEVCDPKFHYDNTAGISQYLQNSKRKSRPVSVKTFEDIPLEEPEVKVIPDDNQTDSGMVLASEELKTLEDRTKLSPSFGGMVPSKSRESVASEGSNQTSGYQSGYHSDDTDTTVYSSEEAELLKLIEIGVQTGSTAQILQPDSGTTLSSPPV
T1 sequence (Q96GD4 whole entry): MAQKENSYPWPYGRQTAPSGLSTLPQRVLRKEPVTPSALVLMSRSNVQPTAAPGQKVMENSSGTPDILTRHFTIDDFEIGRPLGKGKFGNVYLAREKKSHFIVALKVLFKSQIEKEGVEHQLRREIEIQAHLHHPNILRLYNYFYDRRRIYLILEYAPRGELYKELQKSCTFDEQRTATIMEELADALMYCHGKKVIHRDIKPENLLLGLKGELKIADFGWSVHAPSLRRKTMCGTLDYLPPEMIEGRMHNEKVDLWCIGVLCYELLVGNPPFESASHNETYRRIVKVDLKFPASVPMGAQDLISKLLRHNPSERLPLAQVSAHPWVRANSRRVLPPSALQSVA

Structure (SMILES) | IC50 [1] [nM] | IC50 [3] [nM] | IC50 [4] [nM] | IC50 [5] [nM] | IC50 [2] [nM] | IC50 [6] [nM]
CCN1CCN(CCCNC(=O)c2ccc3c(c2)S/C(=C(/C(N)=O)c2nccc(C(F)(F)F)n2)N3)CC1 [Compound 56A] | 20 | 20 | 700 | 20 | 40 | 40
NC(=O)/C(=C1\Nc2ccc(C(=O)Nc3ccncc3)cc2N1)c1nccc(C(F)(F)F)n1 [Compound 44A] | 10 | 10 | 200 | 10 | 200 | 80
CN1CCN(CCOc2ccc3c(c2)S/C(=C(/C(N)=O)c2nccc(C(F)(F)F)n2)N3)CC1 [Compound 114A] | 20 | 40 | 50 | 40 | 600 | 40
NC(=O)/C(=C1\Nc2ccc(C(=O)N3CC[C@@H](N)C3)cc2S1)c1nccc(C(F)(F)F)n1 [Compound 69A] | 30 | 2 | 100 | 20 | 90 | 20
NC(=O)/C(=C1\Nc2ccc(C(=O)N3CCC(N)CC3)cc2N1)c1nccc(C(F)(F)F)n1 [Compound 66A] | 10 | 2 | 200 | 20 | 200 | 50
CN(C)CCCNC(=O)c1ccc2c(c1)N/C(=C(/C(N)=O)c1nccc(C(F)(F)F)n1)N2 [Compound 62A] | 10 | 6 | 400 | 70 | 60 | 60
CN1CCN(CCNC(=O)c2ccc3c(c2)S/C(=C(/C(N)=O)c2nccc(C(F)(F)F)n2)N3)CC1 [Compound 57A] | 20 | 10 | 100 | 20 | 100 | 20
NC(=O)/C(=C1\Nc2ccccc2S1)c1ncc(C(=O)NCCCN2CCOCC2)c(C(F)(F)F)n1 [Compound 131A] | 60 | 200 | 900 | 90 | 2000 | 800
NC(=O)C(=C1Nc2ccccc2N1)c1ncc(C(=O)NCCCN2CCOCC2)c(C(F)(F)F)n1 [Compound 132A] | 20 | 100 | 2000 | 60 | 1000 | 600
CN1CCN(S(=O)(=O)c2ccc3c(c2)S/C(=C(/C(N)=O)c2nccc(C(F)(F)F)n2)N3)CC1 [Compound 126A] | 20 | 70 | 2000 | 20 | 2000 | 30
CN1CCN(C(=O)c2ccc3c(c2)S/C(=C(/C(N)=O)c2nccc(C(F)(F)F)n2)N3)CC1 [Compound 59A] | 20 | 6 | 90 | 8 | 400 | 50
NC(=O)/C(=C1\Nc2ccc(C(=O)NC3CCNCC3)cc2S1)c1nccc(C(F)(F)F)n1 [Compound 71A] | 40 | 4 | 200 | 20 | 200 | 90
NC(=O)/C(=C1\Nc2cc(F)c(C(=O)NCCCN3CCOCC3)cc2S1)c1nccc(C(F)(F)F)n1 [Compound 50A] | 10 | 20 | 400 | 20 | 300 | 90

Further compounds by falling IC50 [1], results first:

IC50 [1] [nM] | IC50 [3] [nM] | IC50 [4] [nM] | IC50 [5] [nM] | Structure (SMILES) | IC50 [2] [nM] | IC50 [6] [nM]
10 | 3 | 60 | 10 | NC(=O)/C(=C1\Nc2ccc(C(=O)N3CC[C@@H](N)C3)cc2N1)c1nccc(C(F)(F)F)n1 [Compound 68A] | 100 | 60
10 | 100 | 1000 | 30 | NC(=O)/C(=C1\Nc2ccc(S(=O)(=O)N3CCNCC3)cc2S1)c1nccc(C(F)(F)F)n1 [Compound 129A] | 1000 | 300
9 | 20 | 400 | 20 | NC(=O)/C(=C1\Nc2ccc(N3CCC(N4CCOCC4)CC3)cc2S1)c1nccc(C(F)(F)F)n1 [Compound 122A] | 4000 | 7000
9 | 2 | 500 | 30 | CN1CCN(c2ccc3c(c2)S/C(=C(/C(N)=O)c2nccc(C(F)(F)F)n2)N3)CC1 [Compound 120A] | 2000 | 2000
7 | 10 | 400 | 8 | CN1CCCCC1C(=O)Nc1ccc2c(c1)N/C(=C(/C(N)=O)c1nccc(C(F)(F)F)n1)N2 (stereo not drawn) [Compound 82A] | 80 | 30
6 | 6 | 200 | 9 | CN1CCN(c2ccc3c(c2)N/C(=C(/C(N)=O)c2nccc(C(F)(F)F)n2)N3)CC1 [Compound 119A] | 1000 | 200
5 | 80 | 200 | 50 | NCC(=O)Nc1ccc2c(c1)SC(=C(C(N)=O)c1nccc(C(F)(F)F)n1)N2 (single isomer, unassigned) [Compound 76A, 2-{6-[(2-aminoacetyl)-amino]benzothiazol-2(3H)-ylidene}-2-(4-trifluoromethylpyrimidin-2-yl)acetamide] | 700 | 100
4 | 50 | 90 | 10 | NC(=O)/C(=C1\Nc2ccc(NC(=O)[C@@H]3CCCN3)cc2N1)c1nccc(C(F)(F)F)n1 [Compound 80A] | 500 | 100
